Drawing on patent publication US20120172361A1, “TRIAZINE DERIVATIVES AND THEIR THERAPEUTICAL APPLICATIONS” (CALIFORNIA CAPITAL EQUITY, LLC, priority 2009, published 2012), this text covers inhibition for 29 compounds.

The assay deals with T1, Aurora-A(h) (Homo sapiens, UniProt O14965).
T1 construct: purchased Millipore (KinaseProfiler service); also Reaction Biology Corp. (Kinase Hotspot)
T1 sequence (O14965 1-403): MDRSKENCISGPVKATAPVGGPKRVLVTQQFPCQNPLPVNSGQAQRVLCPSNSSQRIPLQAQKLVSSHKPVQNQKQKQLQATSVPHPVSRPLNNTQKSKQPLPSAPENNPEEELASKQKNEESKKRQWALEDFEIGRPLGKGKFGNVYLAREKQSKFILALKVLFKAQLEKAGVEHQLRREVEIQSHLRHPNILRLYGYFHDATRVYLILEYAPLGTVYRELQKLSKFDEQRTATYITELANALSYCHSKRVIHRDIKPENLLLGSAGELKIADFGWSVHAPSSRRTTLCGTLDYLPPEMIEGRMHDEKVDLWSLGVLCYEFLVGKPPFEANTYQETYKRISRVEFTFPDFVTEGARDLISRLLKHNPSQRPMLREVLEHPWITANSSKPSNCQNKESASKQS
As to the kind of experiment: Aurora-A kinase assay (KinaseProfiler Service Assay Protocols, Millipore; also Kinase Hotspot, Reaction Biology Corp.). The class given is biochemical. The following applies: compound concentration 1 μM. How it is done: This example illustrated Aurora Kinase Assays of selected Compounds from this invention (referred to Daniele Fancelli et al, J. Med. Chem., 2006, 49 (24), pp 7247-7251). The KinaseProfiler™ Service Assay Protocols (Millipore) were used to test the kinase inhibiting activity of novel compounds from this invention. To do this, the buffer composition was as: 20 mM MOPS, 1 mM EDTA, 0.01% Brij-35, 5% Glycerol, 0.1% β-mercaptoethanol, 1 mg/mL BSA. Test compounds were initially dissolved in DMSO at the desired concentration, then serially diluted to the kinase assay buffer. In a final reaction volume of 25 μL, Aurora-A(h) (5-10 mU) is incubated with 8 mM MOPS pH 7.0, 0.2 mM EDTA, 200 μM LRRASLG (Kemptide), 10 mM MgAcetate and [γ33P-ATP]. The reaction was initiated by the addition of the MgATP mix. After incubation for 40 minute at room temperature, the reaction was stopped by addition of 5 μL of a 3% phosphoric acid solution. 10 μL of the reaction was then spotted onto a P30 filtermat and washed three times for 5 minutes in 50 mM phosphoric acid and once in methanol prior to drying and scintillation counting. Wells containing substrate but no kinase and wells containing a phosphopeptide control were used to set 0% and 100% phosphorylation value, respectively.
Also Kinase Hotspot SM kinase assay was used to test the compounds for IC50 or % inhibitions (Reaction Biology Corp.). Inhibitor IC50 values were determined by titration of compound at the optimal kinase concentration (Kinase EC50).
For the compound `CC(C)c1cnc(Nc2nc(Sc3ccc(NC(=O)C4CC4)cc3)nc(N3CCN(C)CC3)n2)s1` [Example 52], the inhibition (as a rule, the drop in the measured response relative to a control, in per cent) at 1 µM was above 90%.
In turn, `Cc1cc(Nc2nc(Sc3ccc(NC(=O)C4CC4)cc3)nc(N3CCN(C)CC3)n2)sn1` [Example 78] displayed an inhibition at 1 µM below 50%.
Compound `Cc1nnc(Nc2nc(Sc3ccc(NC(=O)C4CC4)cc3)nc(N3CCN(C)CC3)n2)s1` [Example 77] displayed an inhibition at 1 µM below 50%.
The value for `CN1CCN(c2nc(Nc3nncs3)nc(Sc3ccc(NC(=O)C4CC4)cc3)n2)CC1` [Example 11] was below 50%; that for `CC(=O)Nc1ccc(Sc2nc(CC(C)C)nc(Nc3ncc(C)s3)n2)cc1` [Example 72] was below 50%.
The compound `CC(C)C(=O)Nc1ccc(Sc2nc(Nc3cc(C4CC4)[nH]n3)nc(C3CC3)n2)cc1` [Example 79] registered an inhibition at 1 µM above 90%.
With `CCC(=O)Nc1ccc(Sc2nc(N3CCN(C)CC3)nc(-n3cc(C)sc3=N)n2)cc1` [Example 109], the inhibition at 1 µM is below 50%.
Take `CC(=O)Nc1ccc(Sc2nc(N3CCN(C)CC3)nc(-n3cc(C)sc3=N)n2)cc1` [Example 67]: the inhibition at 1 µM is below 50%.
Regarding `Cc1cnc(Nc2nc(Sc3ccc(NC(=O)C4CC4)cc3)nc(N3CCN(CCO)CC3)n2)s1` [Example 19], the inhibition at 1 µM is above 90%.
Turning to `CCc1nc(Nc2cc(C)[nH]n2)nc(Sc2ccc(NC(=O)C3CC3)cc2)n1` [Example 4], the inhibition at 1 µM is above 90%.
In turn, `CCc1nc(Nc2ncc(C)s2)nc(N2CCN(C)CC2)n1` [Example 75] displayed an inhibition at 1 µM below 50%.
On to `CCc1nc(Nc2cc(C)[nH]n2)nc(N2CCN(c3ccncc3)CC2)n1` [Example 13], for which the inhibition at 1 µM is above 50%.
In turn, `CCCCNc1nc(Nc2cc(C)[nH]n2)nc(Sc2ccc(NC(=O)C3CC3)cc2)n1` [Example 93] had an inhibition at 1 µM above 90%.
`Cc1cnc(Nc2nc(Sc3ccc(NC(=O)C4CC4)cc3)nc(N(C)CCN(C)C)n2)s1` [Example 40] had an inhibition at 1 µM above 50%.
The value for `Cc1cnc(Nc2nc(Sc3ccc(N)cc3)nc(N3CCN(C)CC3)n2)s1` [Example 48] was above 50%; that for `Cc1cnc(Nc2nc(Sc3ccc(NC(=O)C4CC4)cc3)nc(C3CC3)n2)s1` [Example 59] was above 50%; that for `CN1CCN(c2nc(Nc3cc(C4CCC4)[nH]n3)nc(Sc3ccc(NC(=O)C4CC4)cc3)n2)CC1` [Example 55] was above 90%.
The value for `CCN(CC)c1nc(Nc2cc(C)[nH]n2)nc(Sc2ccc(NC(=O)C3CC3)cc2)n1` [Example 94] was above 90%.
`CCC(=O)Nc1ccc(Sc2nc(Nc3cc(C)[nH]n3)nc(C3CC3)n2)cc1` [Example 82] returned an inhibition at 1 µM above 90%.
`CCc1nc(Nc2cc(C)[nH]n2)nc(N2CCN(C)CC2)n1` [Example 103]: the inhibition at 1 µM was below 50%.
Compound `CC(=O)Nc1ccc(Sc2nc(Nc3ncc(C)s3)nc(N3CCN(C)CC3)n2)cc1` [Example 73] displayed an inhibition at 1 µM above 90%.
Turning to `Cc1csc(Nc2nc(Sc3ccc(NC(=O)C4CC4)cc3)nc(N3CCN(C)CC3)n2)n1` [Example 64], the inhibition at 1 µM was below 50%.
For `CN1CCN(c2nc(Nc3ncc(Cl)s3)nc(Sc3ccc(NC(=O)C4CC4)cc3)n2)CC1` [Example 50], the inhibition at 1 µM is above 90%.
As to `CCc1nc(Nc2ncc(C)s2)nc(Sc2ccc(NC(=O)C3CC3)cc2)n1` [Example 58], the inhibition at 1 µM is below 50%.
Regarding `CCC(=O)Nc1ccc(Sc2nc(CC)nc(Nc3cc(C)[nH]n3)n2)cc1` [Example 83], the inhibition at 1 µM was above 90%.
With `Cc1cc(Nc2nc(Sc3ccc(NC(=O)C4CC4)cc3)nc(N(C)CCN(C)C)n2)n[nH]1` [Example 92], the inhibition at 1 µM was above 50%.
As for `Cc1cc(Nc2nc(Sc3ccc(NC(=O)C4CC4)cc3)nc(N(C)C)n2)n[nH]1` [Example 127], the inhibition at 1 µM was above 90%.
The value for `CCC(=O)Nc1ccc(Sc2nc(C)nc(Nc3cc(C4CC4)[nH]n3)n2)cc1` [Example 87] was above 90%; that for `Cc1cn(-c2nc(Sc3ccc(NC(=O)C(C)C)cc3)nc(N3CCN(C)CC3)n2)c(=N)s1` [Example 66] was below 50%.
